Patent publication US10342776B2, “Compositions and methods for controlling infections” (priority 2004, dated 2019)

Key:
Aspergillus fungi = test: Mycelium formation on Todd Hewitt agar plates containing GML, Aspergillus; assay type: cell-based; settings: for mycelium growth on plates: 36 hours, room temperature
Protocol: Organisms (at the spore phase) of Aspergillus and Penicillium fungi obtained from nature were separately streaked on Todd Hewitt agar plates containing various concentrations of GML. The plates were incubated at room temperature for 36 hours after which mycelium growth was determined by direct visual examination. […] In contrast, the organisms grew on plates containing 0 and 50 μg/ml.

[1] = tested on: Haemophilus influenzae (two clinical isolates); test: Haemophilus influenzae growth on chocolate agar plates with GML; assay type: cell-based
Protocol: G. vaginalis was formerly designated Haemophilus vaginalis. This consideration raised the possibility that GML would inhibit the growth of Haemophilus influenzae. Two recent clinical isolates of encapsulated (capsule type not typable) Haemophilus influenzae (0.1 ml at 1.0×10^7/ml plated) organisms were tested for ability to grow on chocolate agar plates with no or various concentrations of GML (Table 4; data obtained after 24 of culture). The growth of both strains was inhibited at GML concentrations of 10 μg/ml or greater.

Staphylococcus aureus = settings: earlier work, U.S. application Ser. No. 10/986,512; cited from earlier work
[2] = tested on: Candida albicans (clinical isolates, yeast phase); test: Yeast phase Candida albicans liquid cultures with GML, CFU/ml by plating; assay type: cell-based
Protocol: The Candida albicans samples that were tested in the experiments described in Examples 2 and 3 were recent clinical isolates. The strains were of low passage and were maintained on Todd Hewitt (Difco Laboratories, Detroit, Mich.) agar plates. The organisms were transferred to 25 ml Todd Hewitt broth cultures in 125 ml Erlenmeyer flasks and grown overnight at 37° C. in 7% CO2 with shaking at 200 revolutions per minute (RPM). The next morning the organisms were transferred to new 125 ml flasks containing 25 ml Todd Hewitt medium at a final concentration of 1×10^6 colony forming units (CFU)/ml. […] The GML was made up at a concentration of 100,000 μg/ml in absolute ethanol for addition to the flasks. […] The flasks were cultured for up to 24 hours at 37° C. in 7% CO2 with shaking at 200 revolutions per minute. […] This experiment was performed twice.
The effect of growing yeast phase organisms of a clinical isolate of Candida albicans in the presence of GML was tested in liquid cultures as described in Example 1. […] The GML-mediated killing effect was not seen in cultures containing 20 and 10 μg/ml of GML. […] The experiment was repeated with identical results. The experiment was also carried out with a second clinical isolate of Candida albicans.

[3] = tested on: Gardnerella vaginalis (clinical isolate); test: G. vaginalis liquid culture with GML in the presence of 10% fetal calf serum; assay type: cell-based; settings: for Cells/ml (×10^7) at 24 hours: 10% fetal calf serum
Protocol: (§1) Cells (1.2×10^7/ml in a total volume of 25 ml of dialyzable beef heart medium) of a recent clinical isolate of the gram negative rod Gardnerella vaginalis in vitro were cultured for various lengths of time with various concentrations of GML. At the various time points, the concentration of bacteria in the cultures were determined by colony counting on chocolate agar plates. GML at concentrations as low as 5 μg/ml were bactericidal to G. vaginalis. […] This finding points to the likely efficacy of GML in vivo. Moreover, GML (5 μg/ml or greater) inhibited growth of G. vaginalis plated (0.1 ml at 1.2×10^7/ml) onto chocolate agar plates (Table 3; data obtained after 24 hours of culturing).

[4] = tested on: Gardnerella vaginalis (clinical isolate); test: G. vaginalis liquid culture in dialyzable beef heart medium with GML, colony counting; assay type: cell-based
Protocol: as §1

[5] = tested on: Bacteroides fragilis ATCC 25285; test: Kinetics of growth inhibition of Bacteroides fragilis in WC broth with GML, plate colony counting; assay type: cell-based
Protocol: The kinetics of growth-inhibition by GML of the obligate gram negative anaerobe Bacteroides fragilis ATCC 25285 was determined. An overnight culture of B. fragilis ATCC 25285 in Wilkens Chalgren (WC) broth was inoculated into fresh media (WC) to give a starting cell concentration of 1×10^7 cells/ml. […] […] Because growth of B. fragilis was inhibited by GML, it is expected that growth of the related gram negative anaerobe, Prevotella, would also be inhibited by GML.

Haemophilus influenzae = test: Kinetic study of Haemophilus influenzae growth in Todd Hewitt medium with GML, CFU/ml; assay type: cell-based; settings: GML 50 μg/ml or 100 μg/ml; liquid culture up to 24 hours
Protocol: The strain was inoculated (at a concentration of 1.2×10^6 CFU/ml) into 50 ml of Todd Hewitt medium containing various concentrations of GML. The cultures were grown for 24 hours in an atmosphere of 7% carbon dioxide (balance air) with shaking at 100 RPM. At designated times samples were removed, and colony forming units (CFU) per milliliter were determined by plate counts on chocolate agar plates.

[6] = first clinical isolate, 50, 200 and 1000 μg/ml GML, by 4 hours

## CCCCCCCCCCCC(=O)OCC(O)CO (centres unmarked) [GML, glycerol monolaurate]
Aspergillus fungi; 50 μg/ml GML
  mycelium growth on plates: grew
Aspergillus fungi; 50 μg/ml GML, about 4 days compared to 36 hours
  colony size on plates: larger in size
Aspergillus fungi; 100 and 500 μg/ml GML
  mycelium growth on plates: failed to grow
Aspergillus fungi; 100 and 500 μg/ml GML, about 4 days
  visible colonies on plates: no visible colonies
[1]; GML 1 μg/ml
  Growth Characteristics (Strain 1): Confluent growth
  Growth Characteristics (Strain 2): Confluent growth
[1]; GML 5 μg/ml
  Growth Characteristics (Strain 1): Confluent growth
  Growth Characteristics (Strain 2): Confluent growth
[1]; GML 10 μg/ml
  Growth Characteristics (Strain 1): No visible growth
  Growth Characteristics (Strain 2): No visible growth
[1]; GML 20 μg/ml
  Growth Characteristics (Strain 1): No visible growth
  Growth Characteristics (Strain 2): No visible growth
[1]; GML 50 μg/ml
  Growth Characteristics (Strain 1): No visible growth
  Growth Characteristics (Strain 2): No visible growth
[1]; GML 100 μg/ml
  Growth Characteristics (Strain 1): No visible growth
  Growth Characteristics (Strain 2): No visible growth
[1]; both strains, chocolate agar plates
  GML concentration at which growth was inhibited: ≥ 10 µg/mL
Staphylococcus aureus
  resistance to direct toxic effects of GML: relatively resistant
[2]; first clinical isolate, 20 and 10 μg/ml GML
  growth in culture: grew to almost the same level as in the control cultures
[2]; [6]
  organisms detectable in culture: no organisms were detectable
  reduction in CFU/ml: > 5 log
[2]; second clinical isolate, 50 μg/ml GML, 2, 4 and 6 hours
  number of organisms in culture compared to 0 μg/ml: reduced at all time intervals sampled
[2]; second clinical isolate, 100 and 500 μg/ml GML, by 2 hours
  organisms detectable in culture: no organisms were detectable
[3]; GML 1 μg/ml
  Cells/ml (×10^7) at 24 hours: 210 Cells/ml (×10^7)
[3]; GML 5 μg/ml
  Cells/ml (×10^7) at 24 hours: 201 Cells/ml (×10^7)
[3]; GML 10 μg/ml
  Cells/ml (×10^7) at 24 hours: 160 Cells/ml (×10^7)
[3]; GML 20 μg/ml
  Cells/ml (×10^7) at 24 hours: 88 Cells/ml (×10^7)
[3]; GML 50 μg/ml
  Cells/ml (×10^7) at 24 hours: 1.8 Cells/ml (×10^7)
[3]; GML 100 μg/ml
  Cells/ml (×10^7) at 24 hours: <0.03 Cells/ml (×10^7)
[3]; medium supplemented with fetal calf serum
  inhibition of growth of G. vaginalis: effective in inhibiting the growth
[4]; GML 1 μg/ml
  Cells/ml (×10^7) at 6 hours: 13 Cells/ml (×10^7)
  Cells/ml (×10^7) at 24 hours: 208 Cells/ml (×10^7)
[4]; GML 5 μg/ml
  Cells/ml (×10^7) at 6 hours: 0.0002 Cells/ml (×10^7)
  Cells/ml (×10^7) at 24 hours: 0.0004 Cells/ml (×10^7)
[4]; GML 10 μg/ml
  Cells/ml (×10^7) at 6 hours: <0.000001 Cells/ml (×10^7)
  Cells/ml (×10^7) at 24 hours: <0.000001 Cells/ml (×10^7)
[4]; GML 20 μg/ml
  Cells/ml (×10^7) at 6 hours: <0.000001 Cells/ml (×10^7)
  Cells/ml (×10^7) at 24 hours: <0.000001 Cells/ml (×10^7)
[4]; GML 50 μg/ml
  Cells/ml (×10^7) at 6 hours: <0.000001 Cells/ml (×10^7)
  Cells/ml (×10^7) at 24 hours: <0.000001 Cells/ml (×10^7)
[4]; GML 100 μg/ml
  Cells/ml (×10^7) at 6 hours: <0.000001 Cells/ml (×10^7)
  Cells/ml (×10^7) at 24 hours: <0.000001 Cells/ml (×10^7)
[4]; GML 1000 μg/ml
  Cells/ml (×10^7) at 6 hours: <0.000001 Cells/ml (×10^7)
  Cells/ml (×10^7) at 24 hours: <0.000001 Cells/ml (×10^7)
[4]; liquid culture
  GML concentration bactericidal to G. vaginalis: ≥ 5 µg/mL
[5]; GML 1 μg/ml, 4.5 hours
  Cells/ml ×10^7 at 4.5 hours: 16 Cells/ml ×10^7
[5]; GML 1 μg/ml
  Cells/ml ×10^7 at 25 hours: 130 Cells/ml ×10^7
[5]; GML 10 μg/ml, 4.5 hours
  Cells/ml ×10^7 at 4.5 hours: 1.4 Cells/ml ×10^7
[5]; GML 10 μg/ml
  Cells/ml ×10^7 at 25 hours: 150 Cells/ml ×10^7
[5]; GML 20 μg/ml, 4.5 hours
  Cells/ml ×10^7 at 4.5 hours: <0.01 Cells/ml ×10^7
  fold fewer bacteria than the control culture: at least 1,000 fold
[5]; GML 20 μg/ml, 24 hours
  regrowth of culture: regrowth was observed
[5]; GML 20 μg/ml
  Cells/ml ×10^7 at 25 hours: 200 Cells/ml ×10^7
[5]; GML 50 μg/ml, 4.5 hours
  Cells/ml ×10^7 at 4.5 hours: <0.01 Cells/ml ×10^7
[5]; GML 50 μg/ml
  Cells/ml ×10^7 at 25 hours: <10 Cells/ml ×10^7
[5]; GML 100 μg/ml, 4.5 hours
  Cells/ml ×10^7 at 4.5 hours: <0.001 Cells/ml ×10^7
[5]; GML 100 μg/ml
  Cells/ml ×10^7 at 25 hours: <10 Cells/ml ×10^7
[5]; GML 50 and 100 μg/ml
  growth of B. fragilis bacteria: inhibited the growth
Haemophilus influenzae
  growth of H. influenza organisms: inhibited the growth
